In brackets after ≈: the same amount, converted by molar mass.
Legend:
S. aureus DSM 20231 [1] = test system: S. aureus DSM 20231
S. aureus Newman [2] = test system: S. aureus Newman
S. pneumoniae D39V [3] = test system: S. pneumoniae D39V
B. subtilis 168 [4] = test system: B. subtilis 168
S. pneumoniae D39V [5] = assay: fitness (endpoint OD595 vs no drug) (fraction); higher = more growth
In short: (§1)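 With the first reading as background, OD595 was measured every 30 min for 14 h in 384-well plates kept at 37 °C and inoculated at OD595 0.01. TSB, LB Lennox or CY was the medium. Fitness is the optical density at the transition into stationary phase divided by the robust mean of no-drug control wells, with a cap of 1.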

B. subtilis 168 [6] = assay: as above
In short: as §1

S. aureus Newman [7] = assay: as above
In short: as §1

S. aureus DSM 20231 [8] = assay: as above
In short: as §1

S. aureus DSM 20231 [9] = assay: Bliss interaction score (quartile over a dose matrix) (fitness difference); higher = more antagonism (negative = synergy)
In short: (§2)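 The Bliss score is observed fitness minus expected fitness, where the expected value is the product of single-drug fitness values inferred from combination data. Fitness is OD595 at entry into stationary phase normalised to the plate's robust no-drug mean and capped at 1. Scores are reported as quartiles spanning technical, biological and donor/recipient replicates.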

S. aureus Newman [10] = assay: as above
In short: as §2

S. pneumoniae D39V [11] = assay: as above
In short: as §2

B. subtilis 168 [12] = assay: as above
In short: as §2
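Wherever Bliss interaction score (quartile over a dose matrix) is given: first quartile when negative (synergy) and third quartile when positive (antagonism).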

CO[C@H]1/C=C/O[C@@]2(C)Oc3c(C)c(O)c4c(O)c(c(/C=N/N5CCN(C)CC5)c(O)c4c3C2=O)NC(=O)/C(C)=C\C=C\[C@H](C)[C@H](O)[C@@H](C)[C@@H](O)[C@@H](C)[C@H](OC(C)=O)[C@@H]1C [Rifampicin]
Conditions | MIC [µg/mL]
B. subtilis 168 [4] | 0.125 (≈ 0.152 µM)
S. aureus DSM 20231 [1] | 0.018 (≈ 0.0219 µM)
S. aureus Newman [2] | 0.035 (≈ 0.0425 µM)
S. pneumoniae D39V [3] | 0.4 (≈ 0.486 µM)

S. pneumoniae D39V [5]
Conditions | fitness
0.025 µg/mL | 0.961
0.05 µg/mL | 0.904
0.1 µg/mL | 0.322
0.2 µg/mL | 0.144

CO[C@@H]1[C@@H](OC(N)=O)[C@@H](O)[C@H](Oc2ccc3c(O)c(NC(=O)c4ccc(O)c(CC=C(C)C)c4)c(=O)oc3c2C)OC1(C)C [Novobiocin]
Conditions | MIC [µg/mL]
S. aureus DSM 20231 [1] | 0.05 (≈ 0.0816 µM)
S. aureus Newman [2] | 0.05 (≈ 0.0816 µM)
S. pneumoniae D39V [3] | 2.5 (≈ 4.08 µM)

B. subtilis 168 [6]
Conditions | fitness
0.0125 µg/mL | 0.921
0.025 µg/mL | 0.956
0.05 µg/mL | 0.986
0.1 µg/mL | 0.993
0.2 µg/mL | ≥ 1

CN[C@@H]1[C@H](O[C@H]2[C@H](O[C@H]3[C@H](O)[C@@H](O)[C@H](N=C(N)N)[C@@H](O)[C@@H]3N=C(N)N)O[C@@H](C)[C@]2(O)C=O)O[C@@H](CO)[C@H](O)[C@H]1O [Streptomycin]
Conditions | MIC [µg/mL]
B. subtilis 168 [4] | 8 (≈ 13.8 µM)
S. aureus DSM 20231 [1] | 8 (≈ 13.8 µM)
S. aureus Newman [2] | 8 (≈ 13.8 µM)
S. pneumoniae D39V [3] | 8 (≈ 13.8 µM)

fitness
Conditions | 1 µg/mL | 2 µg/mL | 4 µg/mL | 8 µg/mL
B. subtilis 168 [6] | – | 0.954 | 0.775 | 0.0378
S. aureus Newman [7] | 0.971 | 0.954 | 0.899 | 0.579
S. pneumoniae D39V [5] | – | 0.932 | 0.943 | 0.914

CN[C@@H]1[C@H](O)[C@H](NC)[C@H]2O[C@@]3(O)C(=O)C[C@@H](C)O[C@H]3O[C@@H]2[C@H]1O [Spectinomycin]
Conditions | MIC [µg/mL]
B. subtilis 168 [4] | 8 (≈ 24.1 µM)
S. aureus DSM 20231 [1] | 16 (≈ 48.1 µM)
S. aureus Newman [2] | 16 (≈ 48.1 µM)
S. pneumoniae D39V [3] | 64 (≈ 193 µM)

fitness
Conditions | B. subtilis 168 [6] | S. aureus DSM 20231 [8] | S. aureus Newman [7] | S. pneumoniae D39V [5]
2 µg/mL | 0.992 | – | – | –
4 µg/mL | 0.964 | 0.966 | 0.963 | 0.956
8 µg/mL | 0.941 | 0.961 | 0.93 | 0.865
16 µg/mL | – | 0.851 | 0.893 | 0.702

CC(=O)NC[C@H]1CN(c2ccc(N3CCOCC3)c(F)c2)C(=O)O1 [Linezolid]
Conditions | MIC [µg/mL]
B. subtilis 168 [4] | 0.5 (≈ 1.48 µM)

fitness
Conditions | 0.125 µg/mL | 0.2 µg/mL | 0.25 µg/mL | 0.4 µg/mL | 0.5 µg/mL | 0.8 µg/mL
B. subtilis 168 [6] | 0.722 | – | 0.239 | – | 0.0555 | –
S. aureus DSM 20231 [8] | 0.923 | – | 0.648 | – | 0.16 | –
S. pneumoniae D39V [5] | – | 0.665 | – | 0.412 | – | 0.227

CN[C@H](CC(C)C)C(=O)N[C@H]1C(=O)N[C@@H](CC(N)=O)C(=O)N[C@H]2C(=O)N[C@H]3C(=O)N[C@H](C(=O)N[C@H](C(=O)O)c4cc(O)cc(O)c4-c4cc3ccc4O)[C@H](O[C@H]3C[C@](C)(N)[C@@H](O)[C@H](C)O3)c3ccc(c(Cl)c3)Oc3cc2cc(c3O[C@@H]2O[C@H](CO)[C@@H](O)[C@H](O)[C@H]2O[C@H]2C[C@](C)(NCc3ccc(-c4ccc(Cl)cc4)cc3)[C@@H](O)[C@H](C)O2)Oc2ccc(cc2Cl)[C@H]1O [Oritavancin]
Conditions | MIC [µg/mL]
S. aureus DSM 20231 [1] | 4.5 (≈ 2.51 µM)
S. aureus Newman [2] | 4.5 (≈ 2.51 µM)

CC[C@H]1OC(=O)[C@H](C)[C@@H](O[C@H]2C[C@@](C)(OC)[C@@H](O)[C@H](C)O2)[C@H](C)[C@@H](O[C@@H]2O[C@H](C)C[C@H](N(C)C)[C@H]2O)[C@](C)(O)C[C@@H](C)C(=O)[C@H](C)[C@@H](O)[C@]1(C)O [Erythromycin]
Conditions | MIC [µg/mL]
S. aureus DSM 20231 [1] | 0.5 (≈ 0.681 µM)
S. aureus Newman [2] | 0.5 (≈ 0.681 µM)
S. pneumoniae D39V [3] | 0.123 (≈ 0.168 µM)

fitness
Conditions | 0.0312 µg/mL | 0.0625 µg/mL | 0.125 µg/mL | 0.25 µg/mL | 0.5 µg/mL
B. subtilis 168 [6] | 0.926 | 0.704 | 0.0499 | 0.0212 | –
S. aureus Newman [7] | 0.964 | 0.889 | 0.594 | 0.111 | 0.0101

CN[C@@H]1[C@H](O)[C@H](NC)[C@H]2O[C@@]3(O)C(=O)C[C@@H](C)O[C@H]3O[C@@H]2[C@H]1O [Spectinomycin] + CN(N=O)C(=O)N[C@@H](C=O)[C@@H](O)[C@H](O)[C@H](O)CO [Streptozotocin]
fitness
Conditions | partner 0.15 µg/mL | partner 0.3 µg/mL | partner 0.6 µg/mL | partner 1.2 µg/mL | partner 2.4 µg/mL | partner 4.8 µg/mL
S. aureus DSM 20231 [8], first compound 4 µg/mL | 0.831 | 0.761 | 0.757 | – | – | –
S. aureus DSM 20231 [8], first compound 8 µg/mL | 0.875 | 0.798 | 0.754 | – | – | –
S. aureus DSM 20231 [8], first compound 16 µg/mL | 0.769 | 0.781 | 0.722 | – | – | –
S. aureus Newman [7], first compound 4 µg/mL | 0.818 | 0.665 | 0.51 | – | – | –
S. aureus Newman [7], first compound 8 µg/mL | 0.812 | 0.631 | 0.478 | – | – | –
S. aureus Newman [7], first compound 16 µg/mL | 0.813 | 0.614 | 0.427 | – | – | –
S. pneumoniae D39V [5], first compound 4 µg/mL | – | – | – | 0.947 | 0.928 | 0.913
S. pneumoniae D39V [5], first compound 8 µg/mL | – | – | – | 0.847 | 0.832 | 0.81

fitness, one replicate
Conditions | partner 0.15 µg/mL | partner 0.3 µg/mL | partner 0.6 µg/mL | partner 1.2 µg/mL | partner 2.4 µg/mL | partner 4.8 µg/mL
B. subtilis 168 [6], first compound 2 µg/mL | 0.961 | 0.958 | 0.991 | – | – | –
B. subtilis 168 [6], first compound 4 µg/mL | ≥ 1 | ≥ 1 | ≥ 1 | – | – | –
B. subtilis 168 [6], first compound 8 µg/mL | 0.977 | 0.832 | 0.926 | – | – | –
S. aureus DSM 20231 [8], first compound 32 µg/mL | 0.674 | 0.696 | 0.686 | – | – | –
S. aureus DSM 20231 [8], first compound 64 µg/mL | 0.0638 | 0.0605 | 0.0885 | – | – | –
S. aureus Newman [7], first compound 32 µg/mL | 0.519 | 0.423 | 0.0868 | – | – | –
S. aureus Newman [7], first compound 64 µg/mL | 0.0732 | 0.067 | 0.0303 | – | – | –
S. pneumoniae D39V [5], first compound 16 µg/mL | – | – | – | 0.764 | 0.841 | 0.686

Conditions | Bliss interaction score
B. subtilis 168 [12] | -0.0285
S. aureus DSM 20231 [9] | 0.0831
S. aureus Newman [10] | -0.046
S. pneumoniae D39V [11] | -0.0505

CC[C@H](C)[C@H](N)C1=N[C@H](C(=O)N[C@@H](CC(C)C)C(=O)N[C@H](CCC(=O)O)C(=O)N[C@H](C(=O)N[C@H]2CCCCNC(=O)[C@H](CC(N)=O)NC(=O)[C@@H](CC(=O)O)NC(=O)[C@H](Cc3cnc[nH]3)NC(=O)[C@@H](Cc3ccccc3)NC(=O)[C@H]([C@@H](C)CC)NC(=O)[C@@H](CCCN)NC2=O)[C@@H](C)CC)CS1 [Bacitracin]
main component drawn
Conditions | MIC [µg/mL]
B. subtilis 168 [4] | 300 (≈ 211 µM)
S. aureus DSM 20231 [1] | 80 (≈ 56.2 µM)
S. aureus Newman [2] | 75 (≈ 52.7 µM)
S. pneumoniae D39V [3] | 1.17 (≈ 0.824 µM)

fitness, main component drawn
Conditions | 18.75 µg/mL | 37.5 µg/mL | 75 µg/mL | 150 µg/mL
B. subtilis 168 [6] | – | 0.936 | 0.912 | 0.802
S. aureus DSM 20231 [8] | 0.628 | 0.0499 | 0.0064 | –
S. aureus Newman [7] | 0.683 | 0.275 | 0 | –

CO[C@@]12[C@H](COC(N)=O)C3=C(C(=O)C(C)=C(N)C3=O)N1C[C@@H]1N[C@@H]12 [Mitomycin C]
Conditions | MIC [µg/mL]
B. subtilis 168 [4] | 0.25 (≈ 0.748 µM)
S. aureus DSM 20231 [1] | 0.069 (≈ 0.206 µM)
S. aureus Newman [2] | 0.069 (≈ 0.206 µM)
S. pneumoniae D39V [3] | 0.062 (≈ 0.185 µM)

Conditions | fitness
B. subtilis 168 [6], 0.0312 µg/mL | 0.78
B. subtilis 168 [6], 0.0625 µg/mL | 0.582
B. subtilis 168 [6], 0.125 µg/mL | 0.0244
S. aureus DSM 20231 [8], 0.0156 µg/mL | 0.844
S. aureus DSM 20231 [8], 0.0312 µg/mL | 0.775
S. aureus DSM 20231 [8], 0.0625 µg/mL | 0.59
S. aureus DSM 20231 [8], 0.1562 µg/mL | 0.886
S. aureus Newman [7], 0.0156 µg/mL | 0.71
S. aureus Newman [7], 0.0312 µg/mL | 0.618
S. aureus Newman [7], 0.0625 µg/mL | 0.452
S. pneumoniae D39V [5], 0.002 µg/mL | 0.823
S. pneumoniae D39V [5], 0.004 µg/mL | 0.754
S. pneumoniae D39V [5], 0.008 µg/mL | 0.554
